Data on two molecules can be found in patent publication US20020106657A1, “Genetic test to determine non-responsiveness to statin drug treatment” (priority 1999, published 2002).

“And” between values parts separate entries of the source, which are not always exact repeats. Equal entries are not always repeated. Where two headings read alike, the source gives them in different places.

For assay [1], the system named is CABG patients (saphenous-vein coronary-artery bypass grafts). Nature of the assay: Post-CABG Trial: angiographic graft worsening under lovastatin (aggressive vs moderate) and warfarin. The format is in vivo, human. The method, then:
A genetic association study was conducted by a within-case comparison ancillary to the Post Coronary Artery Bypass Graft Trial. (The Post Coronary Artery Bypass Graft Trial Investigators. The effect of aggressive lowering of low-density lipoprotein cholesterol levels and low-dose anticoagulation on obstructive changes in saphenous-vein coronary-artery bypass grafts, N. Engl. J. Med. 336:153-62 [1997]). A two stage design was followed. First, EBV-transformed lymphoblastoid cell lines were established for subjects from the Los Angeles (L.A.) cohort providing a permanent source of DNA for testing hypotheses related to atherosclerosis-related candidate genes. Then, significant results were tested in a second stage by genotyping all available subjects in the post-CABG trial using DNA isolated from whole blood shipped to Cedars-Sinai Medical Center from the other participating centers.
(§1) Participants were randomly assigned, following a two by two design, to receive 1) lovastatin therapy to lower the LDL-cholesterol level to within the range of 93-97 mg/dl (aggressive treatment group) or 132-136 mg/dl (moderate treatment group), and 2) placebo or low-dose warfarin (Post-CABG, 1997). Coronary angiograms of 1351 subjects at enrollment and an average of 4.3 years later were compared using a quantitative assessment of the severity of graft stenosis. Graft worsening was defined as a decrease in lumen diameter of 0.6mm or more. The percentage of subjects with worsening of one or more grafts was 39% in the aggressive treatment group compared to 51% in the moderate treatment group (p<0.00 1) and the mean percentage of grafts per patient showing worsening was 27% in the aggressive treatment group compared to 39% in the moderate treatment group (p<0.001).
(§2) A total of 1351 subjects from seven clinical centers throughout North America were included in the clinical trial and all were eligible as participants. Genetic material was received from 891 subjects who were included in this ancillary study. Inclusion criteria for the clinical trial were: bypass surgery 1 -11 years prior to the study; an LDL-cholesterol level of 130-175 mg/dl; and at least one patent vein graft as determined by angiography. Subjects were excluded if there was: (a) the likelihood of revascularization or death within the study period of 5 years; (b) unstable angina or myocardial infarction within six months before the start of the trial; (c) severe angina; (d) heart failure; or (e) contraindications to the study medications. Id. Subjects were randomly assigned in a two by two factorial design for treatment to lower LDL-cholesterol levels aggressively (target LDL 93-97 mg/dl) or moderately (target LDL 132-136 mg/dl) with lovastatin and cholestyramine if needed, and for treatment with either placebo or warfarin sufficient to maintain an international normalized ratio of less than 2. Id. Graft worsening was determined by comparing the initial angiogram at enrollment with a follow-up angiogram repeated an average of 4.3 years later. “Worsening” was defined as a reduction in diameter ≧0.6mm in diameter. “Subjects with worsening” were defined as those subjects with one or more grafts showing worsening.
Differences in baseline characteristics between treatment groups and between genotype groups were tested by one-way analysis of variance or Chi-square tests. Log-transformed HDL and TG values were used to perform all statistical analyses in order to adjust for their skewed distributions, but are presented in the tables as untransformed means ±SE. The association between graft worsening and LPL genotype was tested by Chi-square test. Mantel-Haenszel statistics were used for testing the interactions between genotypes and treatment groups. The proportion of grafts showing worsening per subject was used as the quantitative measurement of graft worsening, and multiple regression was performed to for this proportion as a function of genotype and treatment group to identify predictors. […]

Assay [2] relates to CABG patients. Nature of the assay: Post-CABG Trial: serum lipid levels and lovastatin dose needed, by treatment group or LPL HindIII genotype. The format is in vivo, human. On the procedure: as §1, §2
Differences in baseline characteristics between treatment groups and between genotype groups were tested by one-way analysis of variance or Chi-square tests. Log-transformed HDL and TG values were used to perform all statistical analyses in order to adjust for their skewed distributions, but are presented in the tables as untransformed means ±SE. The association between graft worsening and LPL genotype was tested by Chi-square test. Mantel-Haenszel statistics were used for testing the interactions between genotypes and treatment groups. The proportion of grafts showing worsening per subject was used as the quantitative measurement of graft worsening, and multiple regression was performed to for this proportion as a function of genotype and treatment group to identify predictors. Adjusted variables for this trait included age, gender, body mass index, smoking status, number of years since CABG, systolic and diastolic blood pressure, current medicine use, and family history as listed in Table 1. All statistical analyses were carried out with SAS software (version 6.12, SAS Institute, Cary, N.C.).
To investigate potential mechanisms for the association between the LPL HindIII 2/2 genotype and graft worsening, baseline characteristics and response of the subjects to the lipid-lowering action of lovastatin were compared between subjects (Table 3). There were no differences observed between the baseline values for total cholesterol, HDL-cholesterol, and triglycerides. However, a small difference in LDL-cholesterol was observed, 159.6±2.1 mg/dl for subjects with HindIII 2/2 compared with 155.0±0.7 for 1/1 and 1/2, p=0.04. […]

The subject of assay [3] is CABG patients (saphenous-vein coronary-artery bypass grafts). The settings on record: cited from earlier work; for percentage of subjects with worsening of one or more grafts: 1351 subjects, average 4.3 years.
Setting [4] is: Aggressive treatment group (N = 430), mean ± SE.
Setting [5] is: LPL HindIII 1/1 & 1/2 genotype (N = 817).
The mark [6] stands for this setting: LPL HindIII 2/2 genotype (N = 74).
[7] abbreviates: Moderate treatment group (N = 406), mean ± SE.

`CC[C@H](C)C(=O)O[C@H]1C[C@@H](C)C=C2C=C[C@H](C)[C@H](CC[C@@H]3C[C@@H](O)CC(=O)O3)[C@H]21` [lovastatin]: the “percent of subjects with graft worsening” value is 49% in assay [1] (HindIII 1/1 and 1/2 genotype, moderate drug treatment group); 35% in assay [1] (HindIII 1/1 or 1/2 genotype, aggressive lipid-lowering treatment group); 54% in assay [1] (HindIII 2/2 genotype, aggressive treatment group); 65% in assay [1] (HindIII 2/2 genotype, moderate lipid-lowering treatment group). Also, the “odds ratio for graft worsening, combined unfavorable LPL HindIII genotype with moderate drug treatment” value in assay [1] (HindIII 2/2 plus moderate lipid-lowering, 95% CI 1.4-8.7) is 3.5. In addition, in assay [1] (adjusted for / stratified by LPL HindIII genotype, 95% CI 1.32-2.4), the “odds ratio, effect of treatment on graft worsening” value is 1.78 and 1.8. Also, in assay [1] (within LPL HindIII 1/1 and 1/2 genotype group, 95% CI 1.3 to 2.4), the “odds ratio for graft worsening, moderate vs aggressive drug treatment” value was found to be 1.8. Moreover, the “Steady state lipid levels: HDL cholesterol” value came out at 44.9 ± 0.6 mg/dL in assay [2] (setting [4]), 44.1 ± 0.4 mg/dL in assay [2] (setting [5]), 46.7 ± 1.6 mg/dL in assay [2] (setting [6]) and 43.7 ± 0.6 mg/dL in assay [2] (setting [7]). Besides, the “Steady state lipid levels: LDL cholesterol” value in assay [2] (setting [4]) stood at 97.1 ± 1.3 mg/dL; in assay [2] (setting [5]) it was 114.7 ± 1.1 mg/dL; in assay [2] (setting [6]), 115.1 ± 4.3 mg/dL; in assay [2] (setting [7]) it was 133.0 ± 1.3 mg/dL. Moreover, the “Steady state lipid levels: Total cholesterol” value in assay [2] (setting [4]) was 172.6 ± 1.6 mg/dL; in assay [2] (setting [5]), 191.0 ± 1.3 mg/dL; in assay [2] (setting [6]), 191.1 ± 4.8 mg/dL; in assay [2] (setting [7]), 209.5 ± 1.6 mg/dL. In addition, the “Steady state lipid levels: Triglycerides” value in assay [2] (setting [4]) is 157.4 ± 4.5 mg/dL; in assay [2] (setting [5]), 163.6 ± 3.4 mg/dL; in assay [2] (setting [6]) it was 151.0 ± 9.6 mg/dL; in assay [2] (setting [7]), 164.5 ± 4.4 mg/dL. The results for the “Lipid change: HDL cholesterol” value in assay [2] (setting [5]) and in assay [2] (setting [6]) were 14.2 ± 1.0% and 14.1 ± 3.1%, respectively. For the same molecule, the “Lipid change: LDL cholesterol” value is given as 45.1 ± 1.5% in assay [2] (setting [5]) and 53.5 ± 6.9% in assay [2] (setting [6]). Also, the “Lipid change: Total cholesterol” value amounted to 15.2 ± 0.6% in assay [2] (setting [5]) and 16.9 ± 2.0% in assay [2] (setting [6]). Further, the “Lipid change: Triglycerides” value in assay [2] (setting [5]) is 8.2 ± 2.0%; in assay [2] (setting [6]), 6.0 ± 5.8%. Besides, the “percentage of patients with atherosclerotic worsening of grafts within 4 years” value in assay [3] (aggressive lovastatin treatment (LDL-C lowered to 93-97 mg/dl)) is recorded as 39%; in assay [3] (moderate lovastatin treatment (LDL-C lowered to 132-136 mg/dl)), 51%. Further, the “percentage of subjects with worsening of one or more grafts” value was 39% in assay [3] (aggressive treatment group, worsening = lumen diameter decrease 0.6 mm or more) and 51% in assay [3] (moderate treatment group). Further, the figures for the “mean percentage of grafts per patient showing worsening” value in assay [3] (aggressive treatment group) and in assay [3] (moderate treatment group) were 27% and 39%, respectively. Moreover, in assay [3] (aggressive vs moderate lovastatin treatment group), the “number of patients who required a second CABG procedure, lower than in moderate-treatment group” value is 29%.
On to `CC(=O)CC(c1ccccc1)c1c(O)c2ccccc2oc1=O` (stereo not drawn) [warfarin], for which the “effect of the warfarin treatment on graft worsening” value in assay [3] (low-dose warfarin vs placebo) is given as “No effect”.
